Legend:
[1] = tested on: mice subjected to chronic unpredictable stress (CUS); test: Chronic unpredictable stress (CUS) in mice, behavioral state (learned helplessness, social interaction, anhedonia); assay type: in vivo; conditions: exogenous allopregnanolone treatment after 3 weeks CUS; FIGS. 3B-3D
Description: In each graph, from left to right, the first bar is control, second bar is mice following CUS, and the third bar is mice following CUS and with exogenous allopregnanolone treatment.
Decreased expression of 5α-reductase 1 and 2 is associated with chronic stress, a major risk factor for depression. […] Reduced endogenous neurosteroids impaired the affective state.

women with PPD = conditions: zuranolone treatment; cited from earlier work

CC(=O)[C@H]1CC[C@H]2[C@@H]3CC[C@H]4C[C@H](O)CC[C@]4(C)[C@H]3CC[C@]12C [allopregnanolone]
behavioral state of the mice following CUS (learned helplessness, social interaction, anhedonia) [1]: restored the behavioral state

C[C@@]1(O)CC[C@H]2[C@H](CC[C@@H]3[C@@H]2CC[C@]2(C)[C@@H](C(=O)Cn4cc(C#N)cn4)CC[C@@H]32)C1 [zuranolone]
women with PPD exhibiting a rapid antidepressant response (women with PPD): 57%
